# Assay results from US9102648B1, “Bioavailable diacylhydrazine ligands for modulating the expression of exogenous genes via an ecdysone receptor complex” (Intrexon Corporation, priority 2003, dated 2015).
# Like-named read-outs stand apart in the source and are kept apart here.
# What was measured:
# [1] = Aqueous equilibrium solubility in pH 7.4 buffer; details: pH 7.4 aqueous buffer, room temperature, equilibrium
# Procedure: Equilibrium solubility was measured in pH 7.4 aqueous buffer. The buffer was prepared by adjusting the pH of a 0.07 M solution of NaH2PO4 to pH 7.4 with 10 N NaOH. […] At least 1 mg of powder was combined with 1 mL of buffer to make >1 mg/mL mixture. These samples were shaken for ≧2 hours and left to stand overnight at room temperature. The samples were then filtered through a 0.45-μm Nylon syringe filter that was first saturated with the sample. The filtrate was sampled twice, consecutively. The filtrate was assayed by HPLC against standards prepared in methanol.
# [2] = Determination of LC Log P (experimental); assay type: physicochemical
# Procedure: Liquid chromatography retention times (RT) are measured for each substance using the conditions described below. A linear equation is derived relating RT to log P is developed from the data for the log P standards. The log P for the test compound is calculated from the log P/retention time equation.
# [3] = molecular target: GAL4 DBD (1-147)-CfEcR(DEF)/VP16AD-βRXREF-LmUSPEF (Choristoneura fumiferana, UniProt O77240); test: cell-based; details: for 27-63 assay Rel Max FI: maximum fold induction at any concentration relative to that of GS-E ligand, CHO 27-63 cells; for fold induction at 3.3 µM: read-out: Fold Induction, 27-63 Assay, 3.3 uM; for fold induction at 33 µM: read-out: Fold Induction, 27-63 Assay, 33 uM; for Fold Induction, 27-63 Assay, 3.3 uM: 3.3 uM ligand; for Fold Induction, 27-63 Assay, 3.3 uM / Fold Induction, 27-63 Assay, 33 uM: RLU ligand treated / RLU DMSO treated cells; for Fold Induction, 27-63 Assay, 33 uM: 33 uM ligand
# [4] = system: mutated ecdysone receptor-based gene switch; test: In vivo SEAP induction, ligand by IP injection; set-up: species or system C57BL/6 mouse; details: for Secreted Alkaline Phosphatase (percentage of GS ™-E ligand induction) Day 2 / Secreted Alkaline Phosphatase (percentage of GS ™-E ligand induction) Day 3 / Secreted Alkaline Phosphatase (percentage of GS ™-E ligand induction) Day 11: mouse serum; for Secreted Alkaline Phosphatase (percentage of GS ™-E ligand induction) Day 2: IP 2.6 μmol ligand 3 days after electroporation, day 2 after ligand; for Secreted Alkaline Phosphatase (percentage of GS ™-E ligand induction) Day 3 / Secreted Alkaline Phosphatase (percentage of GS ™-E ligand induction) Day 11: IP 2.6 μmol ligand; for Secreted Alkaline Phosphatase (percentage of GS ™-E ligand induction) Day 3: day 3 after ligand; for Secreted Alkaline Phosphatase (percentage of GS ™-E ligand induction) Day 11: day 11 after ligand; for Secreted Alkaline Phosphatase Day 2 / Secreted Alkaline Phosphatase Day 3 / Secreted Alkaline Phosphatase Day 7: IP 26 nmol ligand
# Procedure: Applicants' ligands are useful in various applications including gene therapy, expression of proteins of interest in host cells, production of transgenic organisms, and cell-based assays. In vivo induction of a reporter enzyme with various ligands of the present invention was evaluated in a C57BL/6 mouse model system containing a gene switch.
# Each element of the gene switch was on a separate plasmid. Receptor expression was under the control of a CMV promoter (SEQ ID NO: 15). Induction was evaluated by the amount of reporter protein expressed in the presence of ligand.
# SEAP expression in serum of mice was evaluated after electroporation of the gene switch into mouse quadriceps. Mice were anesthetized with 2 μL/g of a mixture of ketamine (100 mg/mL) and xylazine (20 mg/mL). Animals were then shaved, DNA vectors injected into the muscle in a volume of 2×50 μL polyglutamic acid (12 mg/mL water), electrode conductivity gel applied, and an electrode caliber (1 cm×1 cm; model 384) was placed on hind leg. The muscle was electroporated with 200 V/cm, 8 times, for 20 msec/pulse, at 1 sec time intervals. The transverse electrical field direction was reversed after the animals received half of the pulses. Electroporation was performed with an ECM 830 electroporator from BTX Molecular Delivery Systems.
# In some experiments mice received an intraperitoneal injection (IP) of 2.6 μmol of ligand in 50 μL of DMSO 3 days after electroporation of the gene switch. In other experiments the concentration of ligand was decrease to 26 nmol/50 μL of DMSO/mouse. SEAP expression was evaluated 2-11 days after ligand administration. In other experiments ligand was administered in rodent chow. The chow was prepared by dissolving 2 g of ligand in 20 mL of acetone and adding it to 1 kg of LabDiet 5010 autoclavable chow from Purina Mills. This was thoroughly mixed in a Hobart mixer and then mixed for an additional 15 min in a Cross Blend mixer. Animals received chow ad libitum for 1, 2, or 3 days. All values are the average from four animals. Background SEAP in sera from animals treated with vector alone without ligand addition was 0-11 ng/mL serum.
# Mouse serum was obtained by centrifugation of blood acquired by retroorbital bleeding with a small glass capillary tube. SEAP quantification was determined using a Clontech Great Escape chemiluminescence kit and by comparison with the Clontech SEAP standard.
# Table 9: In vivo evaluation of ligand-mediated induction of a mutated ecdysone receptor-based gene switch. SEAP expression in serum of mice was evaluated after electroporation of the gene expression cassettes into mouse quadriceps. Mice received an IP injection of 2.6 μmol of ligand 3 days after electroporation. SEAP expression was evaluated 2-11 days after ligand administration. Each dose group was composed of four animals. Percentage of GS™-E ligand induction was determined by averaging SEAP expression from four animals divided by the average SEAP expression induced with GS™-E ligand and then multiplying by 100.
# Table 10: Induction of gene switch expression with low concentrations of ligand. SEAP expression in serum of mice was evaluated after electroporation of the gene expression cassettes into mouse quadriceps. Mice received an IP injection of 26 nmol of ligand or 130 nmol GS™-E ligand 3 days after electroporation. SEAP expression was evaluated 2-7 days after ligand administration. Values are the average from 4 animals.
# [5] = from LC retention time against log P standards, read-out: LC LogP (exp)
# [6] = read-out: 27-63 assay EC50, CHO 27-63 stable cell line, luciferase reporter, average of two wells
Compound,EC50 [3],27-63 assay Rel Max FI [3],fold induction at 3.3 µM [3],fold induction at 33 µM [3],Secreted Alkaline Phosphatase (percentage of GS ™-E ligand induction) Day 2 [4],Secreted Alkaline Phosphatase (percentage of GS ™-E ligand induction) Day 3 [4],Secreted Alkaline Phosphatase (percentage of GS ™-E ligand induction) Day 11 [4],also measured
CC(=O)c1ccc(C(=O)NN(C(=O)c2cc(C(=O)O)cc(C(=O)O)c2)C(C)(C)C)cc1 [RG-100150],–,–,–,–,–,–,–,Solubility pH 7.4 [1]: ≧1.0 mg/mL
CC(C)(C)N(NC(=O)c1ccc(Cl)cc1)C(=O)c1ccccc1 [RG-100864],17.3 µM,0.716,1,1180,–,–,–,logP ([2]; diacylhydrazine log P standards (log P known experimentally)): 3.2
"COc1cccc(C(=O)NN(C(=O)c2cc(Cl)c(F)c(Cl)c2)C(C)(C)C)c1C [RG-101382, N-(3-methoxy-2-methylbenzoyl)-N′-(3,5-dichloro-4-fluorobenzoyl)-N′-tert-butylhydrazine]",0.306 µM,1.188,2700,2570,92 percentage of GS ™-E ligand induction,81 percentage of GS ™-E ligand induction,890 percentage of GS ™-E ligand induction,"chromatographic logP [2, 5]: 4.4"
"CCc1c(C(=O)NN(C(=O)c2cc(C)cc(Cl)c2)C(C)(C)C)ccc2c1OCCO2 [RG-101494, N-(5-ethyl-1,4-benzodioxan-6-carbonyl)-N′-(tert-butyl)-N′-(3-chloro-5-methylbenzoyl)hydrazine]",0.036 µM,0.916,717,294,136 percentage of GS ™-E ligand induction,138 percentage of GS ™-E ligand induction,–,"chromatographic logP [2, 5]: 4.3"
"Cc1cc(C)cc(C(=O)N(NC(=O)c2ccc3c(c2C)OCCO3)C(C)(C)C)c1 [RG-102317, N-(5-methyl-1,4-benzodioxan-6-carbonyl)-N′-(tert-butyl)-N′-(3,5-dimethylbenzoyl)hydrazine]",0.102 µM,0.948,2550,2500,112 percentage of GS ™-E ligand induction,116 percentage of GS ™-E ligand induction,61 percentage of GS ™-E ligand induction,chromatographic logP [2]: 3.6
"COc1cc(C(=O)N(NC(=O)c2ccc3c(c2C)OCCO3)C(C)(C)C#N)cc(OC)c1C [RG-115092, N-(5-methyl-1,4-benzodioxan-6-carbonyl)-N′-(2-cyano-2-propyl)-N′-(3,5-dimethoxy-4-methylbenzoyl)hydrazine]",0.213 µM,1.092,2870,3110,8 percentage of GS ™-E ligand induction,2 percentage of GS ™-E ligand induction,–,"chromatographic logP [2, 5]: 3.5"
COc1cnccc1C(=O)N(NC(=O)c1cccc(O)c1C)C(C)(C)C [RG-115595],–,–,–,–,–,–,–,Solubility pH 7.4 [1]: 0.026 mg/mL
"CCc1c(OC)cccc1C(=O)NN(C(=O)c1cc(C)cc(C=NNC(=O)C(N)=O)c1)C(C)(C)C [RG-115613, oxamic hydrazone of N-(3-formyl-5-methyl-benzoyl)-N-tert-butyl-N′-(2-ethyl-3-methoxy-benzoyl) hydrazide]",–,–,–,–,2 percentage of GS ™-E ligand induction,1 percentage of GS ™-E ligand induction,–,LC LogP (exp) ([2]; from LC retention time against log P standards): 2.8
"CCC(N(NC(=O)c1cccc(OC)c1C)C(=O)c1cc(OC)c(C)c(OC)c1)C(C)(C)C (stereo not shown) [RG-115820, 3,5-dimethoxy-4-methyl-benzoic acid N-(1-ethyl-2,2-dimethyl-propyl)-N′-(3-methoxy-2-methyl-benzoyl)-hydrazide]",0.193 µM,1.270,2860,1970,82 percentage of GS ™-E ligand induction,63 percentage of GS ™-E ligand induction,399 percentage of GS ™-E ligand induction,–
CCCC(N(NC(=O)c1cccc(OC)c1C)C(=O)c1cc(OC)c(C)c(OC)c1)C(C)(C)C (stereo not shown) [RG-115824],–,1.218,–,–,102 percentage of GS ™-E ligand induction,101 percentage of GS ™-E ligand induction,415 percentage of GS ™-E ligand induction,"Fold Induction, 27-63 Assay, 3.3 uM ([3]; average of two wells): 2675; Fold Induction, 27-63 Assay, 33 uM ([3]; average of two wells): 948; EC50 [3, 6]: 0.036 µM"
"CCCC(N(NC(=O)c1cccc(OC)c1CC)C(=O)c1cc(OC)c(C)c(OC)c1)C(C)(C)C (stereo not shown) [RG-115829, 3,5-Dimethoxy-4-methyl-benzoic acid N-(1-tert-butyl-butyl)-N′-(2-ethyl-3-methoxy-benzoyl)-hydrazide]",0.035 µM,1.264,2600,45,72 percentage of GS ™-E ligand induction,83 percentage of GS ™-E ligand induction,687 percentage of GS ™-E ligand induction,–
CCCC(N(NC(=O)c1cccc(OC)c1CC)C(=O)c1cc(C)cc(C)c1)C(C)(C)C (stereo not shown) [RG-115830],–,1.049,–,–,120 percentage of GS ™-E ligand induction,158 percentage of GS ™-E ligand induction,"3,558 percentage of GS ™-E ligand induction","Secreted Alkaline Phosphatase Day 2 [4]: 6,835 ng/ml mouse sera; Secreted Alkaline Phosphatase Day 3 [4]: 5,339 ng/ml mouse sera; Secreted Alkaline Phosphatase Day 7 [4]: 590 ng/ml mouse sera; Fold Induction, 27-63 Assay, 3.3 uM ([3]; average of two wells): 2287; Fold Induction, 27-63 Assay, 33 uM ([3]; average of two wells): 353; EC50 [3, 6]: 0.036 µM"
CCc1c(OC)cccc1C(=O)NN(C(=O)c1cc(OC)c(C)c(OC)c1)C(CC)C(C)(C)C (stereo not shown) [RG-115831],–,1.366,–,–,118 percentage of GS ™-E ligand induction,121 percentage of GS ™-E ligand induction,105 percentage of GS ™-E ligand induction,"Fold Induction, 27-63 Assay, 3.3 uM ([3]; average of two wells): 2063; Fold Induction, 27-63 Assay, 33 uM ([3]; average of two wells): 1435; EC50 [3, 6]: 0.096 µM"
CCc1c(OC)cccc1C(=O)NN(C(=O)c1cc(C)cc(C)c1)C(CC)C(C)(C)C (stereo not shown) [RG-115832],–,1.075,–,–,147 percentage of GS ™-E ligand induction,189 percentage of GS ™-E ligand induction,"4,183 percentage of GS ™-E ligand induction","Secreted Alkaline Phosphatase Day 2 [4]: 2,349 ng/ml mouse sera; Secreted Alkaline Phosphatase Day 3 [4]: 1,807 ng/ml mouse sera; Secreted Alkaline Phosphatase Day 7 [4]: 149 ng/ml mouse sera; Fold Induction, 27-63 Assay, 3.3 uM ([3]; average of two wells): 2063; Fold Induction, 27-63 Assay, 33 uM ([3]; average of two wells): 1435; EC50 [3, 6]: 0.035 µM"
